{"source": "patent US20250051694A1", "about": "“BAR COMPOSITION HAVING ENHANCED ANTIMICROBIAL ACTIVITY” (Conopco, Inc., d/b/a UNILEVER, priority 2021, published 2025)", "tested_on": "S. aureus ATCC 6538", "experiment": "Time-kill assay (adapted from ASTM E2315-16), Gram positive", "type": "cell-based", "details": "Table II, simulated 10% slurry", "experimental": "Aqueous slurries were prepared whereby gratings from the bars made in the Samples of Table I were mixed with water to form a test solution containing 10% by weight of the initial bar component. In the second method, raw bar components, as depicted in the Samples in Table II, were mixed with water to form a test solution containing a total of 10% raw bar component to simulate an aqueous slurry of a bar composition. For each sample, aqueous slurries were mixed at 50° C. to simulate customary consumer washing conditions.\nAs to the microbes, E. coli ATCC 10536 and S. aureus ATCC 6538 were used in this study to represent Gram negative and Gram positive bacteria, respectively. The bacteria were stored at −80° C. Fresh isolates were cultured twice on Tryptic Soy Agar plates for 24 hours at 37° C. before each experiment.\nTest solutions were prepared. In the first method and for the aqueous slurries made from the bar compositions described in Table I, a composition (typically containing up to 15% surfactant) was mixed with water to form a test solution containing 10% weight percent of the initial formulation. In the second method and for the raw ingredients combined in Table II, the same were mixed with water at levels that simulate a 10% dilution of the slurries. In each assessment, test solutions were heated and mixed at […]\nThe log reduction was calculated using the formula: […]"}
{"smiles": "CC(O)C(=O)O", "note": "(stereo not shown) [lactic acid]", "values": [{"measurement": "S. aureus Log Reduction (46° C., 30 sec)", "value": "performed poorly"}]}
